Experimental data from patent US6265423A, “Aromatic polycyclic retinoid-type derivatives, method for preparing same, and use thereof for making pharmaceutical and cosmetic compositions” (priority 1996, dated 2001).
Entries after “also recorded” stand apart in the source; their conditions may differ.

Experiments:
RARγ-ERcassette = assay: Transactivation, chimerical receptor RARγ-ERcassette (HeLa); type: cell-based; conditions: 10^-6 M; TTNPB 10^-8 M = 100
From the text: (§1) The HeLa cells are co-transfected by a plasmid which codes for a retinoic receptor in which the C domain of bonding to the DNA is substituted by that of the receptor to RE oestrogens, and a plasmid which places the expression of the luciferase under the control of an ERE (Element of Response to Oestrogens). The expressed chimerical receptors are designated as RARα-ERcassette, RARβ-ERcassette, RARγ-ERcassette and RXRα-ERcassette. The A, B, D, E and F regions of the natural receptor are preserved as well as the transcriptional co-operation between the activation domains AF-1 and AF-2. These transitory transfection experiments follow the method of co-precipitation to calcium phosphate. The HeLa cells are co-transfected by […] of plasmid coding for the chimerical receptor, […] of reporter plasmid and […] of expression vector CMV-β-galactosidase used as an internal control of transfection. 24 hours after the transfection, the cells are incubated for 16 hours with the different effectors.
(§2) In this type of chimerical receptor, the C domain of bonding to the DNA of RAR is substituted by that of the receptor to the RE oestrogens. The protein obtained is close to the natural RAR receptor and preserves the transcriptional properties of the AF-1 and AF-2 domains. It modulates the transcription by means of an ERE. This RAR-ERcassette model allows one to observe a transcriptional response to a more physiological ligand.

[1] = test system: human mammary tumoral lineage T-47D; assay: Clonogenic test (soft agar), growth of cellular colonies; type: cell-based; conditions: T-47D; for activity at 0.01 µM / activity at 0.001 µM / activity at 0.0001 µM: 504 h, 21 days, control = 100%, read-out: mean number of cellular colonies in relation to control; for activity at 0.001 µM: 10^-9 M; for activity at 0.0001 µM: 10^-10 M; for effect on growth of cellular colonies (in words): soft agar
From the text: The human tumour stem cells are the clonogenic cells which are the origin of the neoplasic cells which constitute a given tumour. These tumour stem cells are responsible for the recidivism process observable after surgical resection of the primary tumours and are also responsible for the formation of metastases. […] At the level of a tumour or of a tumoral cellular lineage, these clonogenic stem cells distinguish themselves from other clonogenic cells of the tumour or of the neoplasic cellular lineage being considered, by the fact that they preserve their ability to proliferate in the absence of any solid support.
This technique is suitable for the culturing in vitro of most of the tumours and tumoral cellular lineages of various histological types. In the context of this test, the neoplastic cells are cultured on a semi-solid culture medium "soft agar" made up of a mixture of agar and agarose. On this selective support, only tumoral stem cells survive and proliferate. […] The morphological characteristics and the growth of the cellular colonies are also a function of the histological type of the tumours being considered.
These culture conditions are also called "anchorage-independent" conditions.
The base medium "MEM 25 MM HEPES" (Minimum Essential Medium, Life Technologies, Belgium) contains Eagle salts but no L-glutamine. This medium is well suited to the growth of a range of varied diploid cells or primary mammal cells. To this medium is then added:
The tumoral cells are maintained in culture in 25 cm^2 falcon dishes (Life Technologies, Belgium). They are then trypsinised and individualised. Their rate of viability is determined by coloration with trypan blue (Sigma, Belgium). It must be greater than 90%. In the case where this condition is kept to, a cellular suspension at the desired concentration is prepared in a solution of agar at 0. 3%. The cells are then seeded between two layers of agar (Sigma, Belgium) and in 35 mm Petri dishes (Life Technologies, Belgium). The base layer is made up of a 0.5% solution of agar and the top layer is made up of a 0.3% solution of agar. The cupules are then positioned and held in an incubator at 37° C. and 5% of CO2. […] After treatment, the cupules are kept in the incubator for 21 days. It is advisable to examine, during the course of the experiment, the appearance and the increase of the cellular colonies. If after 10 days, no colony appears or is developing, the experiment must be repeated. In the contrary case, on the 21st day, 100 μl of an MTT solution (3-(4,5-dimethylthiazol-2-yl)-2,5 diphenyl tetrazolium bromide; Sigma, Belgium) dissolved in the RPMI culture medium (Roswell park Memorial Institute, Life Technologies, Belgium), at the concentration of 1 mg/ml are deposited on the top layer of the group of cupules. The cells are kept in contact with this solution for a minimum of 3 hours at 37° C.
Using an inverted microscope at low magnification, the number of clones whose surface area is greater thar. 100 μm^2 is determined for the group of cupules representing all the different experimental conditions. Then, for each of these experimental conditions, the mean number of cellular colonies±the standard error on the mean (ESM) is calculated.
The mean number of cellular colonies determined for each experimental condition is expressed as a percentage in relation to the control condition made equal to 100%.

[2] = test system: response element RARE of RARβ gene, endogenic retinoic receptors, HRLN lineage; assay: HRLN transactivation (RARE-luciferase, stably transfected HeLa); type: cell-based; conditions: Homo sapiens, HeLa; for EC50: concentrations from 1 nM to 1 μM; for Emax: read-out: HRLN transactivation, E max
Experimental: (§3) MCF-7 cells and HeLa are cultivated in DMFM with phenol red to which 5% foetal calf serum is added. The T47-D cells are cultivated in RPMI to which 10% foetal calf serum is added. The experimental tests are carried out in DMEM without phenol red to which foetal calf serum treated with dextran carbon is added at 3%. […] The experiments using the different retinoids are carried out sheltered from the light so as to avoid any isomerisation.
(§4) Certain properties of the retinoids have been determined using more developed cellular models. These models consist of cellular lineages transfected in a stable fashion by recombinant plasmids which place the expression of the gene of the luciferase under the control of different nuclear response elements. […] The tests carried out in duplicate are described below for each of these models.
The cellular lineages HRLN and HRL+N allow one to study the activation of an RARE by endogenic receptors using ligands at physiological concentrations. These lineages derive from HeLa cells transfected in a stable fashion by a reporter gene which places the expression of the gene of the luciferase under the control of a nuclear response element RARE (RARE3 -tk-Luc). The HeLa cells express all the known receptors of the retinoic acid (RARα,β,γ and RXRα,β,γ) with a predominance of RARα and RXRα. The response element RARE used for the HRLN cells corresponds to the sequence of the natural gene of the RARβ receptor (GGTTCAnnnnnAGTTCA). The HRL+N cells comprise the sequence GAGTGAnnnnnCGGTGA.
This lineage comprises the response element RARE of the natural gene of the RARβ receptor which controls the expression of the gene of the luciferase.

RARβ-ERcassette = assay: Transactivation, chimerical receptor RARβ-ERcassette (HeLa); type: cell-based; conditions: 10^-6 M; TTNPB 10^-8 M = 100
From the text: as §1, §2

[3] = test system: ERE-βGlob-Luc, MELN lineage (MCF-7); assay: Anti-oestrogenic effect, MELN lineage activated by estradiol; type: cell-based, human; conditions: for inhibition / inhibition at 0.1 µM / inhibition at 0.01 µM: Homo sapiens, MCF7, cells activated by 10^-9 M estradiol; for inhibition: 10^-6 M; for inhibition at 0.1 µM: 10^-7 M; for inhibition at 0.1 µM / inhibition at 0.01 µM: read-out: anti-oestrogenic effect, inhibition; for inhibition at 0.01 µM: 10^-8 M
From the text: as §4
MCF-7 cells express RARα,γ and RXRα. The transfection of MCF-7 cells by an oestrogen-dependent gene (ERE-βGlob-Luc) has permitted the establishment of the MELN cellular lineage, used to determine the anti-oestrogenic activity of the retinoids. These cells contain the gene of the luciferase under the transcriptional control of the promoter of the βGlobine and of the response element ERE isolated from the gene of chicken vitelogenine A2. The experiments are carried out with MELN cells activated by 10^-9 M estradiol. The level of base activity of the MELN cells is obtained with the anti-oestrogen 1 μM 4-OH-tamoxifen (hydroxytamoxifen).
The effect of the products tested on the cells activated by 10^-9 M estradiol is expressed as a percentage, the level of base activity being deducted.

RARα-ERcassette = assay: Transactivation, chimerical receptor RARα-ERcassette (HeLa); type: cell-based; conditions: 10^-6 M; TTNPB 10^-8 M = 100
From the text: as §1, §2

RAR and RXR receptors = assay: RAR/RXR activity profile drawn from the models; type: cell-based
From the text: The reference molecules have allowed one to show the effectiveness and the complementary nature of the different models used and lead to the following conclusions: chimerical constructions GAL-RAR and RAR-ERcassette allow the determination of the RAR agonist profile of molecules, but also an RXR agonist activity with RAR-ERcassette, the HRLN lineage mainly conveys the activity of a compound mediated by endogenic RARα, the HRL+N lineage also provides evidence of an RXR agonist activity of the retinoids, the anti-oestrogenic effect of the retinoids (oestrogen-induced cellular proliferation and MELN lineage) is mediated by RARα, the anti-AP-1 effect is mediated in the MCF-7 cells (MTLN lineage) by RARα, RARγ and RXRα, and an additive effect exists between the RAR and RXR routes.

T-47D cells = assay: Effect on oestrogen-induced proliferation of T-47D cells; type: cell-based, human; conditions: estradiol 10^-9 M
Experimental: as §3
So as to test the anti-proliferation effect of the retinoids, growth experiments under oestrogenic conditions were carried out on cells MCF-7 and T-47D. These are the human oestrogen-dependent mammary cancer cells which express the receptor to RE oestrogens. The effect of the molecules is evaluated after 7 days of culture in oestrogenic conditions (estradiol 10^-9 M) by dosing the cellular DNA. The cells are distributed in 24 well plates at a density of 2×10^4 cells per well. The tests with the different retinoids are carried out in triplicate and the culture medium is changed after 4 days of growth.

Row | SMILES | RAR-ERcassette RARγ transactivation (RARγ-ERcassette) | activity at 0.01 µM ([1]; Homo sapiens, T47D, 10^-8 M) | activity at 0.001 µM ([1]; Homo sapiens, T47D) | activity at 0.0001 µM ([1]; Homo sapiens, T47D) | inhibition at 0.01 µM ([1]; Homo sapiens, T47D, 10^-8 M, read-out: inhibition of colony growth) | EC50 [2] | Emax [2] | RAR-ERcassette RARβ transactivation (RARβ-ERcassette) | inhibition [3] | inhibition at 0.1 µM [3] | inhibition at 0.01 µM [3] | RAR-ERcassette RARα transactivation (RARα-ERcassette) | RAR/RXR activity profile (in words) (RAR and RXR receptors) | effect on oestrogen-induced growth, T-47D (in words) (T-47D cells) | anti-oestrogenic effect (in words) ([3]; estradiol-activated MELN cells) | effect on growth of cellular colonies (in words) [1] | inhibition at 1 µM (T-47D cells; Homo sapiens, T47D, 168 h, 1 μM (10^-6 M), 7 days, read-out: percentage inhibition of growth, T-47D)
1 | C/C(=C\c1ccc2c(c1)C(C)(C)CCC2(C)C)c1ccc(C(=O)O)nc1 [CB12273, (E) 5-[1-(5,6,7,8-tetrahydro-5,5,8,8-tetramethyl-2-naphthalenyl)-2-propenyl]pyridinyl-2-carboxylic acid] | 106% | 71.2 ± 2.9% | 93.9 ± 3.3% | 92.9 ± 21.7% | 28.8% | 21.4 ± 5.6 nM | 106% | 123% | 21 to 41% | 7 to 16% | 0% | 90% | – | – | – | – | –
2 | C/C(=C\c1ccc2c(c1)C(C)(C)CCC2(C)C)c1ccc(C(=O)O)cc1 [CB24159, reference compound] | 89% | – | – | – | – | 0.08 ± 0.1 nM | 100% | 117% | 22 to 37% | 26 to 43% | 31 to 43% | 113% | RAR selective | inhibits the growth of the T-47D cells in a dose dependent manner with an efficacy greater than that of TTNPB | the most inhibiting of the oestrogenic transcription on the MELN model | – | –
3 | C/C(=C\c1ccc2c(c1)C(C)(C)CCC2(C)C)c1ccc(C(=O)O)s1 [CB38973] | – | 38.6 ± 3.6% | 60.1 ± 2% | 68.4 ± 8.3% | – | 14.9 ± 12.3 nM | 89% | – | 30% | – | – | – | – | – | – | inhibit the growth of the cellular colonies; also recorded: significantly inhibit the growth of the colonies | 55%
4 | C/C(=C\c1ccc2c(c1)C(C)(C)CCC2(C)C)c1cc(C(=O)O)no1 [CB57201] | 84% | 64.8 ± 1.2% | 58.9 ± 11% | 75.2 ± 12.2% | – | 55.8 ± 70.1 nM | 70% | 132% | 23 to 41% | 1 to 9% | 0% | 73% | – | – | – | inhibit the growth of the cellular colonies; also recorded: significantly inhibit the growth of the colonies | –
5 | C/C(=C\c1ccc2c(c1)C(C)(C)CCC2(C)C)c1cc(C(=O)O)cs1 [CB80660] | – | – | – | – | – | 38.3 ± 9.5 nM | 106% | – | 18 to 37% | 20 to 42% | 26% | – | – | – | – | – | –
